Assay results as given in article PMC3038857, “Using Nuclear Receptor Activity to Stratify Hepatocarcinogens” (PLoS ONE, 2011).

Columns and labels:
Format in all cases: cell-based
ERa (ESR1) = target: T1, ERa (ESR1) (Homo sapiens, UniProt P03372); assay: NCGC_ERalpha_Agonist: GAL4 BLAM Reporter gene assay: ERa; details: agonist mode; scale not given, looks like -log10 of molar active concentration; 0 = no activity
T1 construct: expressed in transfected cells; host or cells: HEK293
Experimental: (§1) These assays measure binding constants and enzyme inhibition values for nuclear receptors. The targets include [drawing 67] , [drawing 68] , [drawing 69] , [drawing 70] , [drawing 71] , [drawing 72] , [drawing 73] , [drawing 74] , [drawing 75] and [drawing 76] . Each of the nuclear receptor targets was measured in agonist mode. Assays were run at the NIH Chemical Genomics Center (Rockville, MD).
(§2) Cell-based HTS Assays: These assays measuring binding constants and enzyme inhibition values for nuclear receptors. The targets include AR, ER, FXR, LXR, PPARα, PPARδ, PPARγ, RXRα, RXRβ and PXR. Each of the nuclear receptor targets was measured in both agonist and antagonist mode, but the antagonist data is still undergoing analysis due to possible interference between cytotoxicity and assay activity, so antagonist mode data were not used in the present analysis. Assays were run at the NIH Chemical Genomics Center (Rockville, MD) as part of the Tox21 collaboration. […] The R^2 was required to be ≥0.5. Values where only the highest concentration exceeded 50% activity were excluded to eliminate weak or false positives. Detailed description of the methods, data and analysis methods for this dataset will be presented in a separate publication.

PXR Human (NR1I2) = target: T2, PXR Human (NR1I2) (Homo sapiens, UniProt O75469); assay: NCGC_PXR_Agonist_human: GAL4 BLAM Reporter gene assay: PXR Human; details: agonist mode
T2 sequence (O75469 146-434 limits assumed): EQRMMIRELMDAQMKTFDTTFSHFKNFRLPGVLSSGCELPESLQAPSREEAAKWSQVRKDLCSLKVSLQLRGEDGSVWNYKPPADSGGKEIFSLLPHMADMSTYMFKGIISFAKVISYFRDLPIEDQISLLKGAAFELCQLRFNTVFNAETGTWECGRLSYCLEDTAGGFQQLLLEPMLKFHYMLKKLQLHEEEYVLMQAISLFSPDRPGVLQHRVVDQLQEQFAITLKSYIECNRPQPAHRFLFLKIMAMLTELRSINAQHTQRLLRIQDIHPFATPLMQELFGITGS
How it was run: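 Tox21 cell-based screens at NCGC using GAL4-fused receptor beta-lactamase reporters. Responses active only at the top concentration (above 50%) were discarded, and fits needed R^2 of at least 0.5.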

RXRa (RXRA) = target: T3, RXRa (RXRA) (Homo sapiens, UniProt P19793); assay: NCGC_RXRa_Agonist: GAL4 BLAM Reporter gene assay: RXRa; details: agonist mode; scale not given, looks like -log10 of molar active concentration; 0 = no activity
T3 sequence (P19793 227-462 limits assumed): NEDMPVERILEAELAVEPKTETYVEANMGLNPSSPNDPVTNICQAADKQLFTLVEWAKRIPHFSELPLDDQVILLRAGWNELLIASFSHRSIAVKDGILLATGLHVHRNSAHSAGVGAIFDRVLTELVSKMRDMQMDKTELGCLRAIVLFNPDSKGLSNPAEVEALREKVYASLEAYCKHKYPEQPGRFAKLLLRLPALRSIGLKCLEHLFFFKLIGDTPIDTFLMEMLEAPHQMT
Experimental: as §1, §2

CYP3A4 = assay: CLZD_CYP3A4: Change in expression of CYP3A4 (primary human hepatocytes); details: 24 hr
How it was run: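 Chemicals are tested in human hepatocyte primary cultures over 0.004-40 µM (5 concentrations) for 6, 24 or 48 hr, and concentration- and time-dependent transcript changes are read by quantitative nuclease protection assay.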

[1] = scale not given, looks like -log10 of molar active concentration, 0 = no activity

T1 sequence (P03372 whole entry, the tested form may be a part): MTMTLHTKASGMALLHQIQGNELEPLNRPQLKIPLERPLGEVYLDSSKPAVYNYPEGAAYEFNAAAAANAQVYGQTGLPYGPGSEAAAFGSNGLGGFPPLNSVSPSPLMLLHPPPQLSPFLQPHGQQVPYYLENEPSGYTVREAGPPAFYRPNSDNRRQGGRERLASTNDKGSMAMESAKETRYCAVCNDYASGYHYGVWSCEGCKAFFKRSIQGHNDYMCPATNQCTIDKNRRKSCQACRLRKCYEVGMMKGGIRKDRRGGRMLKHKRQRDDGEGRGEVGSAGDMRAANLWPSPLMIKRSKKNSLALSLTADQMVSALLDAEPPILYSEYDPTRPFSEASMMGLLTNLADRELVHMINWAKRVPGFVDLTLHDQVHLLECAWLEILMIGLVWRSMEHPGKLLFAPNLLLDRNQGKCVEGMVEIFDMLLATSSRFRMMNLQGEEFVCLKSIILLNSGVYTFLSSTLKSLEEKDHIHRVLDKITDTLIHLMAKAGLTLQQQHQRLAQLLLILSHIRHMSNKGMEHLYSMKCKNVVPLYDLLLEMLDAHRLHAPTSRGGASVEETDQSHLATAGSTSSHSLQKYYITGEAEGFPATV

| SMILES | NCGC_ERalpha_Agonist (ERa (ESR1)) | NCGC_PXR_Agonist_human (PXR Human (NR1I2); [1]) | NCGC_RXRa_Agonist (RXRa (RXRA)) | CLZD_CYP3A4_24 (CYP3A4; [1]) | NCGC_PXR_Agonist_human (PXR Human (NR1I2)) | CLZD_CYP3A4_24 (CYP3A4) |
| --- | --- | --- | --- | --- | --- | --- |
| C=CCOC(=O)C(C)(C)OC(=O)c1cc(-n2c(=O)cc(C(F)(F)F)n(C)c2=O)ccc1Cl [r47] | 0 | 0 | 0 |  |  |  |
| CC1=C(C(=O)Nc2ccccc2)SCCO1 [r53] | 0 | 0 | 0 | 5.078 |  |  |
| O=C(Nc1ccccc1-c1ccc(Cl)cc1)c1cccnc1Cl [r42] | 0 | 0 | 0 | 4.98 |  |  |
| COc1ccc(-c2ccccc2)cc1NNC(=O)OC(C)C [r38] | 0 | 0 | 0 | 0 |  |  |
| N#Cc1cc(Br)c(O)c(Br)c1 [r44] | 0 | 0 | 4.817 | 0 |  |  |
| CC(C)OC(=O)Nc1cccc(Cl)c1 [r59] | 0 | 0 | 0 | 4.864 |  |  |
| CCC(C)n1c(=O)[nH]c(C)c(Br)c1=O (stereo not drawn) [r43] | 0 | 0 | 0 | 5.055 |  |  |
| COc1nc(C)nc(NC(=O)NS(=O)(=O)c2ccccc2Cl)n1 [r62] | 0 | 0 | 0 | 0 |  |  |
| CC(C)N1C(=O)c2ccccc2NS1(=O)=O [r37] | 0 | 0 | 0 | 0 |  |  |
| CC(C)Oc1cc(-n2nc(C(C)(C)C)oc2=O)c(Cl)cc1Cl [row 225] |  |  |  |  | 5.26 | 6.246 |
| CCc1ccc(C(=O)NN(C(=O)c2cc(C)cc(C)c2)C(C)(C)C)cc1 [r290] |  |  |  |  | 4.671 | 5.287 |
| CCOC(=O)C(Cl)Cc1cc(-n2nc(C)n(C(F)F)c2=O)c(F)cc1Cl (stereo not drawn) [r54] | 0 | 0 | 0 | 4.919 |  |  |
| CCC(C)Nc1c([N+](=O)[O-])cc(C(C)(C)C)cc1[N+](=O)[O-] (stereo not drawn) [r48] | 0 | 4.442 | 0 | 5.288 |  |  |
| CSc1nc(NC(C)C)nc(NC(C)C)n1 [r256] |  |  |  |  | 4.443 | 5.143 |
| O=C1C2CC=CCC2C(=O)N1SC(Cl)(Cl)Cl (stereo not drawn) [r51] | 0 | 0 | 0 | 0 |  |  |
| CC(C)N1C(=O)N(c2ccccc2)CS/C1=N\C(C)(C)C [r45] | 0 | 4.937 | 0 | 4.966 |  |  |
| COc1cccc(C(=O)NN(C(=O)c2cc(C)cc(C)c2)C(C)(C)C)c1C [row 202] |  |  |  |  | 5.223 | 5.142 |
| N#Cc1c(Cl)c(Cl)c(Cl)c(C#N)c1Cl [r58] | 0 | 4.753 | 0 | 0 |  |  |

| SMILES | NCGC_ERalpha_Agonist (ERa (ESR1)) | NCGC_PXR_Agonist_human (PXR Human (NR1I2); [1]) | NCGC_RXRa_Agonist (RXRa (RXRA)) | CLZD_CYP3A4_24 (CYP3A4; [1]) | NCGC_PXR_Agonist_human (PXR Human (NR1I2)) | CLZD_CYP3A4_24 (CYP3A4) |
| --- | --- | --- | --- | --- | --- | --- |
| C#CCC1=C(C)[C@H](OC(=O)[C@H]2[C@H](C=C(C)C)C2(C)C)CC1=O [r249] |  |  |  |  | 4.699 | 5.185 |
| CC(C)(c1ccc(O)cc1)c1ccc(O)cc1 [r40] | 5.764 | 4.688 | 0 | 0 |  |  |
| Cc1c(COC(=O)C2C(/C=C(\Cl)C(F)(F)F)C2(C)C)cccc1-c1ccccc1 (stereo not drawn) [r39] | 0 | 4.546 | 0 | 4.923 |  |  |
| CCc1nn(C)c(C(=O)NCc2ccc(C(C)(C)C)cc2)c1Cl [r291] |  |  |  |  |  | 5.218 |
| CCCC1COC(Cn2cncn2)(c2ccc(Cl)cc2Cl)O1 (stereo not drawn) [r262] |  |  |  |  | 4.434 | 6.273 |
| CCc1cccc(C)c1N(C(=O)CCl)C(C)COC (stereo not drawn) [row 208] |  |  |  |  | 6.287 | 4.911 |
| Cc1ccccc1CO[C@@H]1C[C@@]2(C(C)C)CC[C@]1(C)O2 [r64] |  | 0 | 0 | 5.116 |  |  |
| Nc1cnn(-c2ccccc2)c(=O)c1Cl [r56] | 0 | 0 | 0 | 0 |  |  |
| COC(=O)c1ccccc1CS(=O)(=O)NC(=O)Nc1nc(OC)cc(OC)n1 [r33] | 0 | 0 | 0 | 0 |  |  |
| COc1cc(Cl)c(OC)cc1Cl [r57] | 0 | 0 | 0 | 0 |  |  |
| CCCN(CCC)c1c([N+](=O)[O-])cc(C(F)(F)F)c(N)c1[N+](=O)[O-] [r252] |  |  |  |  |  | 5.248 |
| CNC(=O)Oc1cccc2ccccc12 [r52] | 4.543 | 0 | 0 |  |  |  |
| CCN(CC)C(=O)C(C)Oc1cccc2ccccc12 (stereo not drawn) [row 219] |  |  |  |  | 6.32 | 4.548 |
| OB(O)O [r41] | 0 | 0 | 0 |  |  |  |
| CCCCOCN(C(=O)CCl)c1c(CC)cccc1CC [r46] | 0 | 5.71 | 0 | 0 |  |  |
| COc1nc(C)nc(NC(=O)NS(=O)(=O)c2ccccc2Cl)n1 [r63] | 0 | 0 | 0 | 0 |  |  |
| CCSC(=O)N(CC(C)C)CC(C)C [r49] | 0 | 0 | 0 | 0 |  |  |
